Data reported in patent EP2402358A2, “2',3'-Didehydro-3'-deoxy-4'-ethynylothymidine derivatives for treatment infections caused by human immunodeficiency virus (HIV) multidrug resistant strains, method of their synthesis and pharmaceutically acceptable forms of drugs” (priority 2010, dated 2012).

Key:
[1] = tested on: HIV-1 virus strain Resistant QCR8; settings: Resistance factor Rf=EC50 mutant / EC50 wt virus
Excerpt: (§1) Determination of antiviral activity
(§2) Fully infectious virus HIV-1 was produced from cloned proviral DNA reference coding either for wild-type HIV-1 or from drug-resistant virus following transfection of proviral DNA into recipient mammalian cells. Subsequent to viral protein expression and particle formation, culture supernatant was harvested and used to infect an indicator cell line. This latter cell line expresses all necessary receptors and co-receptors for HIV infection as well as the bacterial gene LacZ coding for β-galactosidase under the control of the HIV-1 long terminal repeat. In this system, amount of β-galactosidase is directly proportional to the extent of viral replication. Activity of β-galactosidase is assayed in presence of a colorless substrate which upon enzymatic conversion yields a yellow product absorbing at 405 nm. Next, variation in colorimetric readout in presence of test compounds was translated in percent viral inhibition following normalization according to absorbance values of positive (presence of anti-HIV drug) and negative (untreated) control wells included in each 96 well-plate. […] Percent inhibition data in function of drug concentration were processed by a statistical curve fitting software yielding a modeled curve from which EC50 was extrapolated.
(§3) Resistance factor Rf=EC50 mutant / EC50 wt virus

[2] = tested on: HIV-1 virus strain Resistant 7005695; settings: Resistance factor Rf=EC50 mutant / EC50 wt virus
Excerpt: as §1, §2, §3

[3] = Determination of cytotoxicity: Alamar Blue Cell Viability Assay; type: cell-based; settings: deciphr cells
Excerpt: (§4) Determination of cytotoxicity: Alamar Blue™ Cell Viability Assay
(§5) The Alamar Blue™ Cell Viability Assay (Invitrogen) is a fluorimetric metod for determining the number of viable cells. The Alamar Blue Reagent contains the cell permeable non-fluorescent blue dye resazurin, which is converted to the pink and fluorescent dye resorufin in response to the action of reductases located in the cytosol, mitochondria and endoplasmic reticulum. Therefore, only living cells will convert resazurin into resorufin. Assays are performed by adding 20 µL of the Alamar Blue Reagent directly to culture wells followed by a 6-hour incubation at 37°C. The fluorescent signal is monitored using 545 nm excitation wavelength and 590 nm emission wavelength. The quantity of resofurin product as measured by fluorescence is directly proportional to the number of living cells in culture, what allows to calculate CC50 value.

[4] = tested on: Wild type HIV-1 (NL4-3 cytotropic strain, CXCR4 - tropic); test: Determination of antiviral activity (beta-galactosidase reporter indicator cell line, deClPhR cell system), wild type virus; type: cell-based; settings: Human immunodeficiency virus 1, NL43
Excerpt: as §1

deClPhR™ cells = test: Determination of cytotoxicity: Alamar Blue Cell Viability Assay; type: cell-based; settings: Cytotoxicity; PNL4-3; deClPhR™ cells
Excerpt: as §4, §5

SMILES | Rf* [1] | Rf* [2] | CC50 ([3]; Cytotoxicity, PNL4-3, deClPhR™ cells) | EC50 [4] | CC50 (deClPhR™ cells) | CC50 ([3]; cytotoxicity in deClPhR™ cells)
C#C[C@@]1(CO)C=C[C@H](n2cc(C)c(=O)[nH]c2=O)O1 [4'-E-d4T (WA32), 2',3'-didehydro-3'-deoxy-4'-ethynylothymidine] | 1.4 | 17.3 | > 200000 nM | 90 nM | – | –
C#C[C@@]1(COC(=O)CCCCCCCCCCCCC)C=C[C@H](n2cc(C)c(=O)[nH]c2=O)O1 [WA37, 1-(2,3-dideoxy-2,3-didehydro-4-ethynyl-5-O-tetradodecanoyl-bb-D-ribofuranosyl)-thymine] | 1.3 | 23.7 | – | 54 nM | > 200000 nM | > 200000 nM
C#C[C@@]1(COC(=O)CCCCCCCCCCCBr)C=C[C@H](n2cc(C)c(=O)[nH]c2=O)O1 [WA38, 1-(5-O-(12-bromododecanoyl)-2,3-dideoxy-2,3-didehydro-4-ethynyl-bb-D-ribofuranosyl)-thymine] | 1 | 10.4 | – | 130 nM | > 200000 nM | > 200000 nM
C#C[C@@]1(COC(=O)CCCCCCCCCCCN=[N+]=[N-])C=C[C@H](n2cc(C)c(=O)[nH]c2=O)O1 [WA39, 1-(5-O-(12-azidododecanoyl)-2,3-dideoxy-2,3-didehydro-4-ethynyl-bb-D-ribofuranosyl)-thymine] | 0.8 | 12.2 | – | 73 nM | > 200000 nM | > 200000 nM
C#C[C@@]1(COC(=O)CCCCCCCCCCCOC)C=C[C@H](n2cc(C)c(=O)[nH]c2=O)O1 [WA40, 1-(2,3-dideoxy-2,3-didehydro-4-ethynyl-5-O-(12-methoxydodecanoyl)-bb-D -ribofuranosy)-thymine] | 2.3 | 17.4 | – | 48 nM | > 200000 nM | > 200000 nM
C#C[C@@]1(COC(=O)CCCCCCCCCCSCC)C=C[C@H](n2cc(C)c(=O)[nH]c2=O)O1 [WA42] | 2.3 | 16.1 | – | 43 nM | > 200000 nM | > 200000 nM
